Source: patent publication US10626112B2, “Heterocyclic sulfonamide derivative and medicine comprising same” (EA PHARMA CO., LTD., priority 2014, dated 2020)

Target: human TRPA1 (Homo sapiens (Human), UniProt O75762)
Assay: Measurement of TRPA1 antagonist activity (1): intracellular calcium increase
Assay type: cell-based
Settings: 293T cells transfected with human TRPA1 expression plasmid; allylisothiocyanate 20 μM stimulation; intracellular calcium fluorescence; read-out: hTRPA1 IC50
From the text: Measurement of TRPA1 Antagonist Activity (1)
Human TRPA1 Expression Plasmid
As cDNA encoding human TRPA1 (GenBank accession No. […]), a commercially available product was purchased (manufactured by Kazusa DNA Research Institute, clone No.: pFN21AB7348, item No.: FHC07217). Using this as a template, full-length human TRPA1 gene was amplified using the primer sequences shown below, by reaction using DNA polymerase (manufactured by Stratagene, trade name: PfuUltra High-Fidelity DNA Polymerase).
A recognition site (underlined) of restriction enzyme HindIII was added to the 5′ side, and XbaI site (underlined) was added to the 3′ side, and GTT of the template sequence was changed to termination codon TAG (bold). The obtained double stranded DNA was enzyme-digested with HindIII and XbaI, and introduced into the multicloning site of expression plasmid pcDNA3.1/zeo(+) (manufactured by Invitrogen) to construct a human TRPA1 expression plasmid.
Human embryonic kidney-derived 293T cells were cultured in Dulbecco's Modified Eagle Medium containing 10% fetal bovine serum, 10 unit penicillin, and 10 μg streptomycin, plated on a petri dish having a diameter of 10 cm at 3×10^6 cells, and cultured for 24 hr in a CO2 incubator. A reduced serum medium (manufactured by Invitrogen, trade name: OPTI-MEM, 600 μL), a gene transfer reagent (manufactured by Mirus Bio, trade name: Mirus TransIT-293, 18 μL), and human TRPA1 expression plasmid (6 μg) were mixed, the total amount of the mixture was added to the cells on the petri dish to allow for gene transfer. The cells were recovered about for 8 hr later, plated on a poly-D-lysine coated 384 well black/clear bottom plate at 12,000 cells/well, and cultured overnight.
Measurement of Intracellular Calcium Increase
The 384 well plate was recovered, and the medium was removed. A calcium-bonded fluorescent indicator (manufactured by Molecular Device, trade name: Calcium4 Assay Kit, 38 μL) dissolved in assay buffer (1×HBSS, 20 mM HEPES, pH 7.2) was added, and the cells were stained in a CO2 incubator for 1 hr. The cells were taken out at room temperature, stood for not less than 15 min, a test substance (10 μL) was added by a platereader FDSS7000 (Hamamatsu Photonics K.K.) equipped with a 384ch dispenser. After 10 min, allylisothiocyanate (12 μL) was further added at a final concentration of 20 μM, and changes in the relative fluorescence intensity after addition of allylisothiocyanate were measured for 5 min.
Test Substance Preparation
The test substance was dissolved in dimethyl sulfoxide and serially diluted with an assay buffer containing 0.1% bovine serum albumin (1×HBSS, 20 mM HEPES, pH 7.2) to a 4.8-fold concentration of the evaluation concentration. Allylisothiocyanate, which is a known TRPA1 activator, was dissolved in dimethyl sulfoxide to 100 mM, and further diluted 5-fold (100 μM) of the final concentration, like the test substance.
Calculation of Antagonist Activity
Under the test substance-free conditions, the maximum variation range of the fluorescence intensity before and after allylisothiocyanate stimulation was defined to be 100% activity rate, and the variation range before and after buffer stimulation was defined as 0% activity rate. The activity rate on addition of the test substance was determined, and the numerical value obtained by subtracting the activity rate from 100 was defined to be an inhibitory rate. IC50, which is the concentration of the test substance necessary for reaching the 50% inhibitory rate, was calculated from the sigmoid approximate curve by a spreadsheet software Excel-Fit.

human TRPA1, sequence (O75762 whole entry): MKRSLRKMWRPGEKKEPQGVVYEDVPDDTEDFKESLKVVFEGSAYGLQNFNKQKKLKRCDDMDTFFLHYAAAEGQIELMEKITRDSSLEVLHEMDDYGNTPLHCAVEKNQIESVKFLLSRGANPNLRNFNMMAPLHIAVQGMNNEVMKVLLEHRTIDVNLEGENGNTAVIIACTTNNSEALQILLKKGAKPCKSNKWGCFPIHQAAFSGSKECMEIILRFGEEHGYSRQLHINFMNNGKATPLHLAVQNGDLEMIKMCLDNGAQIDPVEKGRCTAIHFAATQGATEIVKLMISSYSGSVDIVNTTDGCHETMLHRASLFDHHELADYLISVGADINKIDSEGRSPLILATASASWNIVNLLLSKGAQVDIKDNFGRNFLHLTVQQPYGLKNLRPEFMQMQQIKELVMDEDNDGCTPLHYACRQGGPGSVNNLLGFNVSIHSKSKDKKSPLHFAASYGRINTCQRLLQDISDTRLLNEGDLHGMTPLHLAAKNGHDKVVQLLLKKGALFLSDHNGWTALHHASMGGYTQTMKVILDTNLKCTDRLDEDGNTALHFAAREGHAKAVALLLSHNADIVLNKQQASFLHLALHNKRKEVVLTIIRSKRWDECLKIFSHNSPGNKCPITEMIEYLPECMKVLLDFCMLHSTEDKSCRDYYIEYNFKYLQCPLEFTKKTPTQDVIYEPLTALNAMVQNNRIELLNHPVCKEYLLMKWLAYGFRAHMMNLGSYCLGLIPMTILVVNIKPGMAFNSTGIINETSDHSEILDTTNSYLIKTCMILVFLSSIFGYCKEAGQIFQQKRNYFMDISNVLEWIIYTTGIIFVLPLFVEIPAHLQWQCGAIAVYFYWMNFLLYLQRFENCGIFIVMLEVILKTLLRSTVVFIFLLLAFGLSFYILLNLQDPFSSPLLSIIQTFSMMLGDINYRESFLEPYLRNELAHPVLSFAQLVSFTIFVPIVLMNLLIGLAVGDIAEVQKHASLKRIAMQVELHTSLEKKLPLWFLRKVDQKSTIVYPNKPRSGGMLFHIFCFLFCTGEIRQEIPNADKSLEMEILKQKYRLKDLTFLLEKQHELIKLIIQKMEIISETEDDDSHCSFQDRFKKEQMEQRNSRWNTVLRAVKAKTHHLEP

**Q.** How did the IC50 turn out when `O=C(NCc1cccc(OCc2cccc(CN3CCOCC3)c2)c1)[C@@H]1CCCN1S(=O)(=O)c1cc2cc(F)ccc2o1` [Example 27, (2S)-1-(5-fluorobenzofuran-2-yl)sulfonyl-N-[[3-[[3-(morpholinomethyl)phenyl]-methoxy]phenyl]methyl]-pyrrolidine-2-carboxamide] was run?
**A.** 8.2 nM

**Q.** With `O=C(NCc1cccc(OCc2cccc(OCCN3CCOCC3)c2)c1)[C@@H]1CCCN1S(=O)(=O)c1cc2cc(F)ccc2o1` [Example 28, (2S)-1-(5-fluorobenzofuran-2-yl)sulfonyl-N-[[3-[[3-(2-morpholinoethoxy)phenyl]-methoxy]phenyl]methyl]-pyrrolidine-2-carboxamide] as the molecule, how does the IC50 read?
**A.** 56 nM

**Q.** How did the IC50 turn out when `COC(=O)C(Oc1cccc(CNC(=O)[C@@H]2CCCN2S(=O)(=O)c2cc3cc(F)ccc3o2)c1)c1ccccc1` (stereo partly drawn) [Example 29, methyl 2-[3-[[[(2S)-1-(5-fluorobenzofuran-2-yl)sulfonylpyrrolinidine-2-carbonyl]amino]methyl]-phenoxy]-2-phenylacetate] was run?
**A.** 340 nM

**Q.** Which IC50 does the source give for `O=C(NCc1cccc(OCC2CCOCC2)c1)[C@@H]1CCCN1S(=O)(=O)c1cc2cc(F)ccc2o1` [Example 30, (2S)-1-(5-fluorobenzofuran-2-yl)sulfonyl-N-[[3-(tetrahydropyran-4-ylmethoxy)phenyl]-methyl]pyrrolidine-2-carboxamide] here?
**A.** 8.3 nM

**Q.** With `O=C(NCc1cccc(OCC2CCCOC2)c1)[C@@H]1CCCN1S(=O)(=O)c1cc2cc(F)ccc2o1` (stereo partly drawn) [Example 31, (2S)-1-(5-fluorobenzofuran-2-yl)sulfonyl-N-[[3-(tetrahydropyran-3-ylmethoxy)phenyl]-methyl]pyrrolidine-2-carboxamide] as the molecule, how does the IC50 read?
**A.** 4.3 nM

**Q.** Which IC50 does the source give for `O=C(NCc1cccc(OCC2CCOC2)c1)[C@@H]1CCCN1S(=O)(=O)c1cc2cc(F)ccc2o1` (stereo partly drawn) [Example 32, (2S)-1-(5-fluorobenzofuran-2-yl)sulfonyl-N-[[3-(tetrahydrofuran-3-ylmethoxy)phenyl]-methyl]pyrrolidine-2-carboxamide] here?
**A.** 31 nM

**Q.** Which IC50 does the source give for `O=C(NCc1cccc(OC2CCOCC2)c1)[C@@H]1CCCN1S(=O)(=O)c1cc2cc(F)ccc2o1` [Example 33, (2S)-1-(5-fluorobenzofuran-2-yl)sulfonyl-N-[(3-tetrahydropyran-4-yloxyphenyl)methyl]-pyrrolidine-2-carboxamide] here?
**A.** 160 nM

**Q.** For `O=C(NCc1cc(F)cc(OCc2ccccc2)c1)[C@@H]1CCCN1S(=O)(=O)c1cc2cc(F)ccc2o1` [Example 34, (2S)-N-[(3-benzyloxy-5-fluoro-phenyl)methyl]-1-(5-fluorobenzofuran-2-yl)sulfonyl-pyrrolidine-2-carboxamide], which IC50 is on record?
**A.** 1.6 nM

**Q.** Which IC50 does the source give for `O=C(NCc1cc(F)cc(OCc2ccncc2)c1)[C@@H]1CCCN1S(=O)(=O)c1cc2cc(F)ccc2o1` [Example 35, (2S)-1-(5-fluorobenzofuran-2-yl)sulfonyl-N-[[3-fluoro-5-(4-pyridylmethoxy)-phenyl]methyl]-pyrrolidine-2-carboxamide] here?
**A.** 8 nM

**Q.** With `N#Cc1ccc(COc2cc(F)cc(CNC(=O)[C@@H]3CCCN3S(=O)(=O)c3cc4cc(F)ccc4o3)c2)cc1` [Example 36, (2S)-N-[[3-[(4-cyanophenyl)methoxy]-5-fluoro-phenyl]methyl]-1-(5-fluorobenzofuran-2-yl)sulfonyl-pyrrolidine-2-carboxamide] as the molecule, how does the IC50 read?
**A.** 1.5 nM

**Q.** Which IC50 does the source give for `O=C(NCc1cccc(OCc2ccccc2)c1)[C@@H]1CCCN1S(=O)(=O)c1cc2ccccc2o1` [Example 37, (2S)-1-(benzofuran-2-ylsulfonyl)-N-[(3-benzyloxyphenyl)methyl]pyrrolidine-2-carboxamide] here?
**A.** 14 nM

**Q.** With `O=C(NCc1cccc(OCc2ccc(C(F)(F)F)cc2)c1)[C@@H]1CCCN1S(=O)(=O)c1cc2ccccc2o1` [Example 38, (2S)-1-(benzofuran-2-ylsulfonyl)-N-[[3-[[4-(trifluoromethyl)phenyl]methoxy]-phenyl]methyl]pyrrolidine-2-carboxamide] as the molecule, how does the IC50 read?
**A.** 9.1 nM

**Q.** For `O=C(NCc1cccc(OCc2ccc(C(F)(F)F)cc2)c1)[C@@H]1CCCN1S(=O)(=O)c1cc2cccc(F)c2o1` [Example 39, (2S)-1-(7-fluorobenzofuran-2-yl)sulfonyl-N-[[3-[[4-(trifluoromethyl)phenyl]methoxy]-phenyl]methyl]pyrrolidine-2-carboxamide], which IC50 is on record?
**A.** 190 nM

**Q.** `O=C(NCc1cccc(OCc2ccc(C(F)(F)F)cc2)c1)[C@@H]1CCCN1S(=O)(=O)c1cc2ccc(F)cc2o1` [Example 40, (2S)-1-(6-fluorobenzofuran-2-yl)sulfonyl-N-[[3-[[4-(trifluoromethyl)phenyl]methoxy]-phenyl]methyl]pyrrolidine-2-carboxamide] was tested. Which IC50 did it give?
**A.** 96 nM

**Q.** With `O=C(NCc1cccc(OCc2ccc(C(F)(F)F)cc2)c1)[C@@H]1CCCN1S(=O)(=O)c1cc2c(F)cccc2o1` [Example 42, (2S)-1-(4-fluorobenzofuran-2-yl)sulfonyl-N-[[3-[[4-(trifluoromethyl)phenyl]methoxy]-phenyl]methyl]pyrrolidine-2-carboxamide] as the molecule, how does the IC50 read?
**A.** 7.1 nM

**Q.** How did the IC50 turn out when `O=C(NCc1cccc(OCc2ccccc2)c1)[C@@H]1CCCN1S(=O)(=O)c1cc2cc(F)ccc2o1` [Example 43, (2S)-N-[(3-benzyloxyphenyl)methyl]-1-(5-fluorobenzofuran-2-yl)sulfonyl-pyrrolidine-2-carboxamide] was run?
**A.** 1.6 nM

**Q.** How did the IC50 turn out when `O=C(NCc1cccc(OCc2ccc(C(F)(F)F)cc2)c1)[C@@H]1C=CCN1S(=O)(=O)c1cc2ccccc2o1` [Example 44, (2S)-1-(benzofuran-2-ylsulfonyl)-N-[[3-[[4-(trifluoromethyl)phenyl]methoxy]-phenyl]methyl]-2,5-dihydropyrrole-2-carboxamide] was run?
**A.** 1.7 nM

**Q.** For `O=C(NCc1cccc(OCc2ccc(C(F)(F)F)cc2)c1)[C@@H]1[C@@H](O)CCN1S(=O)(=O)c1cc2ccccc2o1` [Example 45, (2S,3S)-1-(benzofuran-2-ylsulfonyl)-3-hydroxy-N-[[3-[[4-(trifluoromethyl)phenyl]methoxy]-phenyl]methyl]pyrrolidine-2-carboxamide], which IC50 is on record?
**A.** 35 nM

**Q.** How did the IC50 turn out when `O=C(NCc1cccc(OCc2ccc(C(F)(F)F)cc2)c1)[C@@H]1C[C@@H](O)CN1S(=O)(=O)c1cc2ccccc2o1` [Example 46, (2S,4R)-1-(benzofuran-2-ylsulfonyl)-4-hydroxy-N-[[3-[[4-(trifluoromethyl)phenyl]methoxy]-phenyl]methyl]pyrrolidine-2-carboxamide] was run?
**A.** 130 nM

**Q.** With `O=C(NCc1cccc(OCc2ccc(C(F)(F)F)cc2)c1)[C@@H]1CC(F)(F)CN1S(=O)(=O)c1cc2ccccc2o1` [Example 47, (2S)-1-(benzofuran-2-ylsulfonyl)-4,4-difluoro-N-[[3-[[4-(trifluoromethyl)phenyl]methoxy]-phenyl]methyl]pyrrolidine-2-carboxamide] as the molecule, how does the IC50 read?
**A.** 24 nM

**Q.** With `O=C(NCc1cccc(OCc2ccc(C(F)(F)F)cc2)c1)[C@@H]1CCN1S(=O)(=O)c1cc2ccccc2o1` [Example 48, (2S)-1-(benzofuran-2-ylsulfonyl)-N-[[3-[[4-(trifluoromethyl)phenyl]methoxy]-phenyl]methyl]azetidine-2-carboxamide] as the molecule, how does the IC50 read?
**A.** 6.9 nM

**Q.** Which IC50 does the source give for `C[C@H](NS(=O)(=O)c1cc2cc(F)ccc2o1)C(=O)NCc1cccc(OCc2ccc(C(F)(F)F)cc2)c1` [Example 49, (2S)-2-[(5-fluorobenzofuran-2-yl)sulfonylamino]-N-[[3-[[4-(trifluoromethyl)phenyl]methoxy]-phenyl]methyl]propanamide] here?
**A.** 18 nM

**Q.** `O=C(NCc1ccc(Oc2cccc(C(F)(F)F)c2)cc1)[C@@H]1CCCN1S(=O)(=O)c1cc2ccccc2o1` [Example 50, (2S)-1-(benzofuran-2-ylsulfonyl)-N-[[4-[3-(trifluoromethyl)phenoxy]phenyl]-methyl]pyrrolidine-2-carboxamide] was tested. Which IC50 did it give?
**A.** 160 nM

**Q.** For `O=C(NCc1ccc(Oc2cccc(C(F)(F)F)c2)cc1)[C@@H]1CCCN1S(=O)(=O)c1cc2cc(F)ccc2o1` [Example 51, (2S)-1-(5-fluorobenzofuran-2-yl)sulfonyl-N-[[4-[3-(trifluoromethyl)phenoxy]phenyl]-methyl]pyrrolidine-2-carboxamide], which IC50 is on record?
**A.** 19 nM
